The record followed here is patent US20130190190A1, “MOLECULAR TARGETS FOR MODULATING INTRAOCCULAR PRESSURE AND DIFFERENTIATION OF STEROID RESPONSES VERSUS NON-RESPONDERS” (priority 2007, published 2013).

SMILES strings stand for the structures.

A short description of this data set: Intraocular pressure (IOP) change in study eyes of patients after a single intravitreal triamcinolone acetonide (IVTA) injection. To be noted: 56 eyes. In kind it is in vivo, human. How it is done: Patients who were recruited were offered treatment with IVTA for various retinal diseases or who had received IVTA in the past. Each patient was treated with IVTA, 4 mg in 0.1 cc, for a variety of indications, at the discretion of the treating physician. Inclusion criteria included age greater than 18 years and the ability to give appropriate informed consent. Exclusion criteria included prior pars plana vitrectomy in the study eye, anterior-segment neovascularization in the study eye, the use of any medication intended to lower IOP in the study eye, or a history of glaucoma, suspected glaucoma, or ocular hypertension in the study eye. All IOP measurements were as per the treating physician's standard practice, typically either applanation tonometry or Tono-pen (Reichert, Depew, N.Y.). No standardized IOP measurement protocol was followed. Intraocular pressure (TOP) was recorded in the study eye prior to treatment with IVTA (baseline IOP). Follow-up was performed at the discretion of the treating physician. On each subsequent visit, IOP was recorded (follow-up IOP) for up to 1 year, or until the study eye was treated with any subsequent intraocular surgery, any subsequent intravitreal injection, or any medication intended to lower IOP. Therefore, during the time period relevant to this study, each eye received only one intravitreal injection. All treatment decisions were at the discretion of the treating physician. The highest follow-up IOP was recorded (maximum IOP). The primary outcome measure was the difference between maximum IOP and baseline IOP was calculated (A IOP), with a positive value indicating a rise in IOP.

As for `CC1(C)O[C@@H]2C[C@H]3[C@@H]4CCC5=CC(=O)C=C[C@]5(C)[C@@]4(F)[C@@H](O)C[C@]3(C)[C@]2(C(=O)CO)O1` [IVTA, triamcinolone acetonide], the “Mean Δ IOP (maximum IOP minus baseline IOP)” value (IVTA 4 mg in 0.1 cc intravitreal, follow-up up to 1 year, positive value = rise in IOP) was determined as 7 mmHg. Also, for the setting “IVTA 4 mg intravitreal, follow-up up to 1 year, 9 eyes”, the “Eyes with Δ IOP greater than 10 mmHg” value came out at 16%. For the same compound, the “Eyes with Δ IOP less than 5 mmHg” value (IVTA 4 mg intravitreal, follow-up up to 1 year, 20 eyes) is given as 36%. For the same compound, under “IVTA 4 mg intravitreal, follow-up up to 1 year, 27 eyes”, the “Eyes with Δ IOP 5-10 mmHg” value is listed as 48%. For the same compound, the “Mean maximum follow-up IOP” value (patients with retinal diseases, IVTA 4 mg in 0.1 cc, one intravitreal injection, highest IOP in follow-up up to 1 year, mean baseline IOP 15 mmHg) worked out at 22 mmHg.
